Results taken from ChEMBL document CHEMBL1201862, “PubChem BioAssay data set” (2004).
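Following 48 hours of exposure in 96-well plates, responses at five concentrations were used to interpolate endpoints linearly. The concentration for 50% growth inhibition is given as GI50.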 Calls of active or inactive are those of the source. Rule as the data show it: active = GI50 up to about 1.1 µM and inactive = higher.

Assays:
Assay in all cases: growth of human tumour cells (NCI), 48 h
SF-268 = system: SF-268
HT-29 = system: HT-29
MDA-N = system: MDA-N
T47D = system: T47D
SNB-75 = system: SNB-75
SK-MEL-5 = system: SK-MEL-5
CCRF-CEM = system: CCRF-CEM
MDA-MB-435 = system: MDA-MB-435
Malme-3M = system: Malme-3M
NCI-H460 = system: NCI-H460
SNB-19 = system: SNB-19
HOP-92 = system: HOP-92
SW-620 = system: SW-620
NCI/ADR-RES = system: NCI/ADR-RES
HL-60 = system: HL-60
MOLT-4 = system: MOLT-4
786-0 = system: 786-0
SF-295 = system: SF-295
ACHN = system: ACHN
RPMI-8226 = system: RPMI-8226

Measured: GI50

Cc1ccc(C2SC(=N)Nc3c2c(C)nn3C(=O)c2ccc(Cl)cc2)cc1 (stereo not given)
inactive: SF-268 > 10 µM | HT-29 > 10 µM | MDA-N > 10 µM | T47D > 10 µM | SNB-75 > 10 µM | SK-MEL-5 > 10 µM | CCRF-CEM > 10 µM | MDA-MB-435 > 10 µM | Malme-3M > 10 µM | NCI-H460 > 10 µM | SNB-19 > 10 µM | HOP-92 > 10 µM | SW-620 > 10 µM | NCI/ADR-RES > 10 µM | HL-60 > 10 µM | MOLT-4 > 10 µM | 786-0 > 10 µM | SF-295 > 10 µM | ACHN > 10 µM | RPMI-8226 > 10 µM

CCOC(=O)CCC(NC(=O)c1ccc(Oc2nc3ccccc3nc2-c2ccccc2)cc1)C(=O)OCC (stereo not given)
inactive: SF-268 6.79 µM | HT-29 2.48 µM | MDA-N 45 µM | T47D > 29.8 µM | SNB-75 8.85 µM | SK-MEL-5 > 100 µM | CCRF-CEM > 100 µM | MDA-MB-435 > 52.1 µM | Malme-3M 12.7 µM | NCI-H460 > 80.4 µM | SNB-19 22 µM | HOP-92 5.51 µM | SW-620 > 100 µM | NCI/ADR-RES 6.34 µM | HL-60 > 100 µM | MOLT-4 > 100 µM | 786-0 3.67 µM | SF-295 23.1 µM | ACHN 7.35 µM | RPMI-8226 37.6 µM

COc1c(/C=C/C(C)(C)O)cc(C2CC(=O)c3c(O)cc(O)cc3O2)cc1CC=C(C)C (stereo not given)
inactive: SF-268 9.04 µM | HT-29 8.91 µM | MDA-N 9.53 µM | T47D 11 µM | SNB-75 9.86 µM | SK-MEL-5 8.47 µM | CCRF-CEM 13.2 µM | MDA-MB-435 8.02 µM | Malme-3M 10.1 µM | NCI-H460 8.73 µM | SNB-19 10.6 µM | HOP-92 10.3 µM | SW-620 17.3 µM | NCI/ADR-RES 12.1 µM | HL-60 12.8 µM | MOLT-4 11.7 µM | 786-0 9.57 µM | SF-295 7.26 µM | ACHN 7.6 µM | RPMI-8226 10.8 µM
